Assay results reported in patent US20240366644A1, “ANTI-INFLAMMATORY APPLICATION OF GINSENOSIDE RD” (priority 2022, published 2024).

Key:
[1] = tested on: COVID-19 Delta virus-infected mice; assay: IL-1β and MCP-1 expression (RT-qPCR) in lung homogenates of COVID-19 Delta virus-infected mice; format: in vivo, hACE2 transgenic C57BL/6 mice; details: for IL-1β expression level in lung homogenate / MCP-1 expression level in lung homogenate: mRNA, blank group 1.00, Day 5 of infection
[2] = tested on: mice infected with COVID-19 Delta virus; assay: Lung histopathology of mice infected with COVID-19 Delta virus; format: in vivo, hACE2 transgenic C57BL/6 mice; details: for Interstitial pneumonia Mild / Interstitial pneumonia Moderate / Interstitial pneumonia Severe / Pulmonary hemorrhage Mild / Pulmonary hemorrhage Moderate / Pulmonary hemorrhage Severe: number of mice with this degree (four per group), five days
[3] = tested on: influenza virus-infected mice; assay: TNF-α and IL-6 in serum and lung tissues of influenza virus-infected mice; format: in vivo, ICR mice
Experimental: A lump of absorbent cotton was put into a beaker of 200-300 mL, and then poured with an appropriate amount of ether (till the absorbent cotton was wetted). The beaker filled with the absorbent cotton was inverted, and added with the mice for anesthesia. When the mice were extremely excited and then obviously weak, that is, the anesthesia depth was moderate, the mice were taken out. The ether-anesthetized mice were placed on their backs, with the mouse head facing upward, and then were subjected to intranasal infection. A diluted influenza virus was added to nostrils at 0.03 mL/nostril. A blank group was administrated with normal saline, instead of a virus suspension.
The mice were randomly divided into four groups, that is, drug groups (10 mg/kg, 5 mg/kg), a model group, and a blank group were administrated by routine gavage on the day before infection, once a day; and the blank group and the model group were perfused with the equal volume of normal saline.
On the Day 1, Day 3, Day 5 and Day 7 after influenza virus infection, venous blood was collected from the plexus ophthalmicus, and blood from mice in each group was preserved, subjected to serum separation, and stored in a refrigerator for later use.
According to the instructions of a test kit, various detection and analysis were carried out, and TNF-α and IL-6 concentrations were calculated based on the standard detection and standard curve plotting.
On the Day 1, Day 3, Day 5 and Day 7 after influenza virus infection, after the mice were killed by bleeding from the eyeballs, the whole lungs were picked, homogenized in a homogenizer according to a ratio of lung weight (g):normal saline (mL)=1:9, and centrifuged; and a supernatant was stored in the refrigerator for later use. According to the instructions of a test kit, various detection and analysis were carried out, and TNF-α and IL-6 concentrations were calculated based on the standard detection and standard curve plotting.

[4] = tested on: Chronic Obstructive Pulmonary Disease in Rats; assay: Lung pathomorphology of rats with chronic obstructive pulmonary disease; format: in vivo, SD rats
[5] = tested on: Chronic Obstructive Pulmonary Disease in Rats; assay: Serum TNF-α and IL-8 in rats with chronic obstructive pulmonary disease (LPS + smoking); format: in vivo, SD rats
Experimental: After adaptive feeding (20-25° C., a humidity of 50-60%) for 1 week, the rats were randomly divided into a blank group, a model group, a positive control group, a ginsenoside Rd high-dose group, and a ginsenoside Rd low-dose group, with ten rats in each group.
Model group: on the Day 1 and Day 14, each rat was intraperitoneally injected with 10% chloral hydrate (300 mg/kg) for anesthesia; the head was fixed in a low position; the glottis was exposed; lipopolysaccharide was quickly injected into the trachea; and the rat was kept upright, and swung left and right for 10-20 s, such that the lipopolysaccharide was evenly distributed in the two lungs. On the Days 2-13, and 15-28, the lungs were smoked in a closed organic glass box for 30 min every day, with 15 cigarettes per day.
Positive control group: the animal was anesthetized, and intratracheally injected with lipopolysaccharide, wherein smoking conditions and time were the same as those of the model group; and after tracheal injection of lipopolysaccharide for two weeks, the animal was administrated with Simvastatin by gavage (2.5 mg/kg), and killed after six weeks, and serum was collected.
In accordance with the instructions, the levels of TNF-α and IL-8 in the serum were detected by enzyme-linked immunosorbent assay. The data was expressed as x±s, p<0.05, which meant that it was statistically significant.

[6] = high-dose 20 mg/kg gavage once a day
[7] = low-dose 10 mg/kg gavage once a day
[8] = high-dose 10 mg/kg gavage once a day, 1 d after infection
[9] = high-dose 10 mg/kg gavage once a day, 3 d after infection
[10] = high-dose 10 mg/kg gavage once a day, 5 d after infection
[11] = high-dose 10 mg/kg gavage once a day, 7 d after infection
[12] = low-dose 5 mg/kg gavage once a day, 1 d after infection
[13] = low-dose 5 mg/kg gavage once a day, 3 d after infection
[14] = low-dose 5 mg/kg gavage once a day, 5 d after infection
[15] = low-dose 5 mg/kg gavage once a day, 7 d after infection

CC(C)=CCC[C@](C)(O[C@@H]1O[C@H](CO)[C@@H](O)[C@H](O)[C@H]1O)[C@H]1CC[C@]2(C)[C@@H]1[C@H](O)C[C@@H]1[C@@]3(C)CC[C@H](O[C@@H]4O[C@H](CO)[C@@H](O)[C@H](O)[C@H]4O[C@@H]4O[C@H](CO)[C@@H](O)[C@H](O)[C@H]4O)C(C)(C)[C@@H]3CC[C@]12C [Ginsenoside Rd, ginsenoside Rd]
IL-1β and MCP-1 inflammatory factors ([1]; compared with the virus model group): significantly reduced
IL-1β expression level in lung homogenate ([1]; 10 mg/kg gavage): 20.88 ± 6.42
MCP-1 expression level in lung homogenate ([1]; 10 mg/kg gavage): 18.71 ± 13.75
IL-1β expression level in lung homogenate ([1]; 20 mg/kg gavage): 10.13 ± 6.68
MCP-1 expression level in lung homogenate ([1]; 20 mg/kg gavage): 7.15 ± 9.36
lung lesions caused by COVID-19 Delta virus ([2]; 10 mg/kg and 20 mg/kg, compared with virus group): good improvement effects on lung lesions
pathological improvement of pulmonary hemorrhage and interstitial pneumonia compared with Dexamethasone ([2]; high-dose group 20 mg/kg): better than Dexamethasone
Interstitial pneumonia Mild [2, 6]: 4
Interstitial pneumonia Moderate [2, 6]: 0
Interstitial pneumonia Severe [2, 6]: 0
Pulmonary hemorrhage Mild [2, 6]: 4
Pulmonary hemorrhage Moderate [2, 6]: 0
Pulmonary hemorrhage Severe [2, 6]: 0
Interstitial pneumonia Mild [2, 7]: 2
Interstitial pneumonia Moderate [2, 7]: 2
Interstitial pneumonia Severe [2, 7]: 0
Pulmonary hemorrhage Mild [2, 7]: 2
Pulmonary hemorrhage Moderate [2, 7]: 2
Pulmonary hemorrhage Severe [2, 7]: 0
Lung tissue IL-6 [3, 8]: 43.56 ± 3.46 pg/mL
Lung tissue TNF-α [3, 8]: 31.34 ± 3.25 pg/mL
Serum IL-6 [3, 8]: 46.21 ± 3.03 pg/mL
Serum TNF-α [3, 8]: 26.53 ± 1.02 pg/mL
Lung tissue IL-6 [3, 9]: 43.47 ± 2.58 pg/mL
Lung tissue TNF-α [3, 9]: 32.09 ± 2.51 pg/mL
Serum IL-6 [3, 9]: 46.52 ± 2.23 pg/mL
Serum TNF-α [3, 9]: 26.83 ± 2.04 pg/mL
Lung tissue IL-6 [3, 10]: 42.39 ± 3.41 pg/mL
Lung tissue TNF-α [3, 10]: 31.97 ± 2.94 pg/mL
Serum IL-6 [3, 10]: 45.79 ± 3.19 pg/mL
Serum TNF-α [3, 10]: 26.99 ± 1.55 pg/mL
Lung tissue IL-6 [3, 11]: 42.21 ± 2.64 pg/mL
Lung tissue TNF-α [3, 11]: 30.08 ± 3.28 pg/mL
Serum IL-6 [3, 11]: 45.23 ± 2.95 pg/mL
Serum TNF-α [3, 11]: 25.88 ± 1.66 pg/mL
Lung tissue IL-6 [3, 12]: 46.86 ± 2.76 pg/mL
Lung tissue TNF-α [3, 12]: 32.98 ± 2.27 pg/mL
Serum IL-6 [3, 12]: 47.15 ± 2.31 pg/mL
Serum TNF-α [3, 12]: 28.32 ± 1.21 pg/mL
Lung tissue IL-6 [3, 13]: 46.29 ± 2.05 pg/mL
Lung tissue TNF-α [3, 13]: 34.72 ± 2.44 pg/mL
Serum IL-6 [3, 13]: 47.22 ± 2.57 pg/mL
Serum TNF-α [3, 13]: 28.19 ± 1.27 pg/mL
Lung tissue IL-6 [3, 14]: 46.21 ± 2.73 pg/mL
Lung tissue TNF-α [3, 14]: 32.14 ± 2.16 pg/mL
Serum IL-6 [3, 14]: 46.62 ± 2.01 pg/mL
Serum TNF-α [3, 14]: 28.07 ± 1.43 pg/mL
Lung tissue IL-6 [3, 15]: 46.52 ± 3.02 pg/mL
Lung tissue TNF-α [3, 15]: 30.86 ± 3.05 pg/mL
Serum IL-6 [3, 15]: 46.59 ± 3.46 pg/mL
Serum TNF-α [3, 15]: 27.94 ± 1.16 pg/mL
inflammatory factors TNF-α and IL-6 after influenza virus infection ([3]; mouse, in vivo): could down-regulate the related inflammatory factors
Epithelial cell necrosis Mild ([4]; 5 mg/kg): 6
Epithelial cell necrosis Moderate ([4]; 5 mg/kg): 4
Epithelial cell necrosis Severe ([4]; 5 mg/kg): 0
Interstitial inflammatory cell infiltration Mild ([4]; 5 mg/kg): 6
Interstitial inflammatory cell infiltration Moderate ([4]; 5 mg/kg): 4
Interstitial inflammatory cell infiltration Severe ([4]; 5 mg/kg): 0
Epithelial cell necrosis Mild ([4]; 10 mg/kg): 7
Epithelial cell necrosis Moderate ([4]; 10 mg/kg): 3
Epithelial cell necrosis Severe ([4]; 10 mg/kg): 0
Interstitial inflammatory cell infiltration Mild ([4]; 10 mg/kg): 7
Interstitial inflammatory cell infiltration Moderate ([4]; 10 mg/kg): 3
Interstitial inflammatory cell infiltration Severe ([4]; 10 mg/kg): 0
lung lesions ([4]; 10 mg/kg and 5 mg/kg, compared with the model group): good improvement effects on lung lesions
effect on lung lesions compared with the Simvastatin group ([4]; high-dose group 10 mg/kg): considerable to the Simvastatin group
IL-8 in serum ([5]; high-dose 10 mg/kg): 24.88 ± 14.67
TNF-α in serum ([5]; high-dose 10 mg/kg): 12.13 ± 17.06
efficacy on serum inflammatory factors compared with Simvastatin ([5]; high-dose group): considerable to that of Simvastatin
IL-8 in serum ([5]; low-dose 5 mg/kg): 30.97 ± 13.70
TNF-α in serum ([5]; low-dose 5 mg/kg): 12.92 ± 10.20
